In article PMC9516332 (Frontiers in Oncology, 2022) one finds inhibition data, which are given here for three compounds.

Common to all, as to test: Kinase panel profiling at 1 µmol/L (MSA or IMAP), percentage inhibition
Holding throughout (assay type): biochemical

The target of assay [1] is T1, panel of 255 wild-type kinases (Homo sapiens, UniProt P51813).
T1 sequence (P51813 1-675): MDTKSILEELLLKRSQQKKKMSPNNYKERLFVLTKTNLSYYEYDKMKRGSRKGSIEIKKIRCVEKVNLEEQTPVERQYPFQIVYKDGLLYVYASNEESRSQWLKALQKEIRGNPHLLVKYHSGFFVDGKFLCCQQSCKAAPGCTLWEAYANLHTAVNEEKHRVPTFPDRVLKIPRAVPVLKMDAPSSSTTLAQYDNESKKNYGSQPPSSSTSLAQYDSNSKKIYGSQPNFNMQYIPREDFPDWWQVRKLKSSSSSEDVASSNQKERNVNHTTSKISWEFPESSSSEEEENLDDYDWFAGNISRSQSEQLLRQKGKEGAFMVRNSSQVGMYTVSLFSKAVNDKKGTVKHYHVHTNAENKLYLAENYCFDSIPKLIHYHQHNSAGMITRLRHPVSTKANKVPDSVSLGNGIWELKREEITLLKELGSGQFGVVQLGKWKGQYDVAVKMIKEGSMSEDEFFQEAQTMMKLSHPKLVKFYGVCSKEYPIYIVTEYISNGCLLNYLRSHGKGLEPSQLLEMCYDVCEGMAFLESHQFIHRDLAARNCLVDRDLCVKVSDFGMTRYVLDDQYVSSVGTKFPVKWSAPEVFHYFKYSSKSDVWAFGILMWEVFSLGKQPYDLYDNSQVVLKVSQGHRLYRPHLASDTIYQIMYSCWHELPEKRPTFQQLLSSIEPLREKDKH
The conditions noted are these: BMX kinase assay; 1 µmol/L single concentration; read-out: %-inhibition BMX.

For assay [2], the target named is panel of 255 wild-type kinases (Homo sapiens, UniProt Q9Y463). The conditions noted are these: kinase DYRK1B; 1 µmol/L single concentration; read-out: %-inhibition at 1 µmol/L, DYRK1B.
Assay [3] deals with T2, panel of 255 wild-type kinases (Homo sapiens, UniProt Q9BZL6).
T2 sequence (Q9BZL6 1-878): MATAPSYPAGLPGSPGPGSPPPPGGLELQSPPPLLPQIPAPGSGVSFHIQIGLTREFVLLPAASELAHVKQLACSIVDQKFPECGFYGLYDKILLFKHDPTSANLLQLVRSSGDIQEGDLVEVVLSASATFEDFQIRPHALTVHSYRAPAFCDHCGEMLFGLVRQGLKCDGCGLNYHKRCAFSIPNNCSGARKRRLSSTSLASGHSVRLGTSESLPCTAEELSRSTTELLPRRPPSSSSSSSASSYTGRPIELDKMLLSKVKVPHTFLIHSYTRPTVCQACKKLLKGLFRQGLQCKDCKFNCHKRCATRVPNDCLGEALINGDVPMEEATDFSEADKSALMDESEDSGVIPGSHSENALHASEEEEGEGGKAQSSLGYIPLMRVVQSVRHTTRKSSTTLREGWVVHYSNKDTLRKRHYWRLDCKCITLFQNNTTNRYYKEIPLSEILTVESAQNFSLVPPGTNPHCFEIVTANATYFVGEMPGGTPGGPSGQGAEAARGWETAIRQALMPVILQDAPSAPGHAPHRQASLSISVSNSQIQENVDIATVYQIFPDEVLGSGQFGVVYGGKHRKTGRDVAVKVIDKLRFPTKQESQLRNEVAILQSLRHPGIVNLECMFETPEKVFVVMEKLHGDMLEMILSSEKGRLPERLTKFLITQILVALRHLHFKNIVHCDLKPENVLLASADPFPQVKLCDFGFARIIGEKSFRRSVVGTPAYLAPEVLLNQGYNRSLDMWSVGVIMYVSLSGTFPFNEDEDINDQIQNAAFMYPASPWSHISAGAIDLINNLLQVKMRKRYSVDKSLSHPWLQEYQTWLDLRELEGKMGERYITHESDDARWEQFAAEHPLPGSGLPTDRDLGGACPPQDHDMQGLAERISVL
The settings on record: kinase PKD2; 1 µmol/L single concentration; read-out: %-inhibition at 1 µmol/L, PKD2.

Assay [4] deals with panel of 255 wild-type kinases (Homo sapiens, UniProt Q05655). The conditions noted are these: kinase PKCδ; 1 µmol/L single concentration; read-out: %-inhibition at 1 µmol/L, PKCδ.
Assay [5] deals with T3, panel of 255 wild-type kinases (Homo sapiens, UniProt P30530).
T3 sequence (P30530 26-894): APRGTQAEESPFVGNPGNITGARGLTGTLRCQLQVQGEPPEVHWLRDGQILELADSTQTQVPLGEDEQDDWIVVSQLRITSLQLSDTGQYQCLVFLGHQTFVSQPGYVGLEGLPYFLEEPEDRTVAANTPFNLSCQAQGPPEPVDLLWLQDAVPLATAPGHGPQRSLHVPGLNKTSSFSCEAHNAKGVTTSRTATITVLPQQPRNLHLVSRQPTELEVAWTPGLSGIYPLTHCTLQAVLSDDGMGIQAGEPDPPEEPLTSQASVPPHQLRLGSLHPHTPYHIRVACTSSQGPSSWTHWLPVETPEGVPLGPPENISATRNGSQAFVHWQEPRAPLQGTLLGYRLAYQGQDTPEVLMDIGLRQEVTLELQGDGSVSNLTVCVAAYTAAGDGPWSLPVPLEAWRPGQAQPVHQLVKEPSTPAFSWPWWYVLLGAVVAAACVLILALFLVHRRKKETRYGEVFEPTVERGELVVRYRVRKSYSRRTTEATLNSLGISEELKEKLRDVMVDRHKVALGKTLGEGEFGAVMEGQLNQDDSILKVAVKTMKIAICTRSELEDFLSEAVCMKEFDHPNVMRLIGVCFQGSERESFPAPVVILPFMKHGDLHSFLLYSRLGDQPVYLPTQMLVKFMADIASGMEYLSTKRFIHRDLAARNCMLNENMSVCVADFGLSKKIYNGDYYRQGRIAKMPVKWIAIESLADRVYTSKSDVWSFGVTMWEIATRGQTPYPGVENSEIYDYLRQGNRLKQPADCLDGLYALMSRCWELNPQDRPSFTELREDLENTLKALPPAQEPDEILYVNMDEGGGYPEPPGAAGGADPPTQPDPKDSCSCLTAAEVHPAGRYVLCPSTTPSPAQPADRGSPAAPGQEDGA
The settings on record: AXL kinase assay; 1 µmol/L single concentration; read-out: %-inhibition AXL.

As to `FC(F)(F)c1ccc(CNc2ccc(Cc3c[nH]c4ncc(Cl)cc34)cn2)cn1` [pexidartinib], the inhibition at 1 µM is -0.565% in assay [1]; 4.37% in assay [2]; -5% in assay [3]; 6.48% in assay [4]; 39% in assay [5].

Consider `CCc1nc(C(N)=O)c(Nc2ccc(N3CCC(N4CCN(C)CC4)CC3)c(OC)c2)nc1NC1CCOCC1` [gilteritinib], for which the inhibition at 1 µM in assay [1] is 60%; in assay [2], 34%; in assay [3], 56%; in assay [4], 12%; in assay [5] it was 100%.

`O=C(Nc1cnn2ccc(N3CCC[C@@H]3c3cc(F)ccc3F)nc12)N1CC[C@H](O)C1` [larotrectinib]: the inhibition at 1 µM was 21% in assay [1]; 6% in assay [2]; -6% in assay [3]; -5% in assay [4]; 4.22% in assay [5].
